{
  "source": "patent US20180369230A1",
  "about": "“TARGETED SELECTION OF PATIENTS FOR TREATMENT WITH SPECIFIC CORTISTATIN DERIVATIVES” (President and Fellows of Harvard College, priority 2015, published 2018)",
  "assay_type_in_all_cases": "cell-based",
  "key": {"SK-N-F1": {"tested_on": "SK-N-F1", "test": "Soft agar growth assay", "conditions": "SK-N-F1, Neuroblastoma, 100 nM", "procedure": "(§1) For the 62 cell lines 96 well suspension cell culture plates were prepared. 100 μL of the soft agar bottom layer (0.6% final concentration in complete medium) was poured and left to solidify. 50 μL of the soft agar top layer (0.4% final concentration) containing the corresponding cells and cell number were then added on top, solidified and incubated at 37° C., 10% CO2. After the soft agar had solidified, the test items were added at indicated final concentrations into the inner wells of the plate. Subsequently, the assay was incubated in cell culture incubators for 8 to 14 days. Finally, the assay was developed using Alamar Blue and upon 1-5 h of incubation at 37° C. fluorescence intensity was determined (excitation: 560 nm; emission: 590 nm). As low control, cells were treated with 1E-05M Staurosporine (6fold values). As high control, cells were treated with 0.1% DMSO (solvent control, 6 fold values).\n(§2) Raw data were converted into percent soft agar growth relative to high controls (solvent 0.1% DMSO) and low controls (1E-05M Staurosporine), which were set to 100% and 0%, respectively. The results are tabulated in FIGS. 15A, 15B, and 15C and Table 4 below."}, "SK.BR-3": {"tested_on": "SK.BR-3", "test": "Soft agar growth assay", "conditions": "SK.BR-3, Breast cancer, HER2 overexpression, 100 nM", "procedure": "as §1, §2"}, "RL95-2": {"tested_on": "RL95-2", "test": "Soft agar growth assay", "conditions": "RL95-2, Endometrial cancer, ER-alpha positive, 100 nM", "procedure": "as §1, §2"}, "A498": {"tested_on": "A498", "test": "Soft agar growth assay", "conditions": "A498, clear cell renal cell carcinoma, VHL negative, 100 nM", "procedure": "as §1, §2"}, "U87MG": {"tested_on": "U87MG", "test": "Soft agar growth assay", "conditions": "Glioma, inactivating mutations in ETV1, FLI1 and SMC3, 100 nM", "procedure": "as §1, §2"}, "MKN-45": {"tested_on": "MKN-45", "test": "Soft agar growth assay", "conditions": "MKN-45, Gastric cancer, MET amplification, 100 nM", "procedure": "as §1, §2"}, "MCF-7": {"tested_on": "MCF-7", "test": "Soft agar growth assay", "conditions": "MCF-7, Breast cancer, ER-alpha positive, 100 nM", "procedure": "as §1, §2"}, "SK-N-MC": {"tested_on": "SK-N-MC", "test": "Soft agar growth assay", "conditions": "Neuroblastoma, EWS-FLI1, 100 nM", "procedure": "as §1, §2"}, "Caki-2": {"tested_on": "Caki-2", "test": "Soft agar growth assay", "conditions": "Caki-2, clear cell renal cell carcinoma, VHL negative, 100 nM", "procedure": "as §1, §2"}, "SK-N-SH": {"tested_on": "SK-N-SH", "test": "Soft agar growth assay", "conditions": "Neuroblastoma, 100 nM", "procedure": "as §1, §2"}, "NCI-N87": {"tested_on": "NCI-N87", "test": "Soft agar growth assay", "conditions": "NCI-N87, Gastric cancer, HER2 overexpression, 100 nM", "procedure": "as §1, §2"}, "SK-ES-1": {"tested_on": "SK-ES-1", "test": "Soft agar growth assay", "conditions": "SK-ES-1, Osteosarcoma, EWS-FLI1, 100 nM", "procedure": "as §1, §2"}, "HCC827": {"tested_on": "HCC827", "test": "Soft agar growth assay", "conditions": "HCC827, Non small cell lung carcinoma, EGFR mutation, 100 nM", "procedure": "as §1, §2"}, "T47D": {"tested_on": "T47D", "test": "Soft agar growth assay", "conditions": "Breast cancer, ER-alpha positive, 100 nM", "procedure": "as §1, §2"}, "OCI-LY1": {"tested_on": "OCI-LY1", "test": "Cellular proliferation assay", "conditions": "DLBCL", "procedure": "(§3) All suspension cells were plated (96-well) in triplicate at 5,000-30,000 cells per well for testing (n=3). Viable cell number was estimated after 3, 7 and 10 days by counting viable cells from one vehicle well, generating a cell dilution series, transferring […] per well in duplicate to a 384-well plate, and performing a linear regression to CellTiter-Glo (Promega) response (SPECTRAmax M3, Molecular Devices). Cells from all wells were also fourfold diluted in media and transferred in duplicate for CellTiter-Glo measurement. On days 3 and 7, an equal volume for all wells was split-back with fresh media and compound, such that the resulting cell density for the vehicle well matched the initial seeding density. For days 7 and 10, estimated cell number represents the split-adjusted theoretical cell number. HCT116 were plated (96-well) in triplicate at 250 cells per well. Cells were incubated in the presence of vehicle, 1 μM paclitaxel, or compound. On day 7, CellTiter-Blue (Promega) response was measured and values were normalized to vehicle (100% growth) and paclitaxel (0% growth). For growth assays with inhibitors, n=3 for each concentration with two independent experiments."}, "JeKo-1": {"tested_on": "JeKo-1", "test": "Cellular proliferation assay", "conditions": "Mantle Cell Lymphoma", "procedure": "as §3"}, "RS4; 11": {"tested_on": "RS4; 11", "test": "Cellular proliferation assay", "conditions": "B-ALL, MLL-AF4", "procedure": "as §3"}, "ARH-77": {"tested_on": "ARH-77", "test": "Cellular proliferation assay", "conditions": "MM/PCL", "procedure": "as §3"}, "K562": {"tested_on": "K562", "test": "Cellular proliferation assay", "procedure": "as §3"}, "HL-60": {"tested_on": "HL-60", "test": "Cellular proliferation assay", "conditions": "AML/APL", "procedure": "as §3"}, "NB4": {"tested_on": "NB4", "test": "Cellular proliferation assay", "conditions": "AML/APL, PML-RARA", "procedure": "as §3"}, "MEG-01": {"tested_on": "MEG-01", "test": "Cellular proliferation assay", "procedure": "as §3"}, "HCT116": {"tested_on": "HCT116", "test": "Cellular proliferation assay", "conditions": "Colorectal, β-catenin", "procedure": "as §3"}, "ALL-SIL": {"tested_on": "ALL-SIL", "test": "Cellular proliferation assay", "conditions": "T-ALL, TLX1 overexpression", "procedure": "as §3"}, "HEL": {"tested_on": "HEL", "test": "Cellular proliferation assay", "procedure": "as §3"}, "ME-1": {"tested_on": "ME-1", "test": "Cellular proliferation assay", "conditions": "ME-1 (CBFB-MYH11); 10-day treatment; read-out: G150 after 10 days of treatment", "procedure": "as §3"}, "UKE-1": {"tested_on": "UKE-1", "test": "Cellular proliferation assay", "conditions": "AML/MPN, JAK2V617F", "procedure": "as §3"}},
  "data": [
    {"substance": "Cortistatin A", "values": [
      {"measurement": "% growth rel. to vehicle", "setting": "SK-N-F1", "result": 30, "unit": "%"},
      {"measurement": "% growth rel. to vehicle", "setting": "SK.BR-3", "result": 22, "unit": "%"},
      {"measurement": "% growth rel. to vehicle", "setting": "RL95-2", "result": 16, "unit": "%"},
      {"measurement": "% growth rel. to vehicle", "setting": "A498", "result": 51, "unit": "%"},
      {"measurement": "% growth rel. to vehicle", "setting": "U87MG", "result": 36, "unit": "%"},
      {"measurement": "% growth rel. to vehicle", "setting": "MKN-45", "result": 27, "unit": "%"},
      {"measurement": "% growth rel. to vehicle", "setting": "MCF-7", "result": 49, "unit": "%"},
      {"measurement": "% growth rel. to vehicle", "setting": "SK-N-MC", "result": 45, "unit": "%"},
      {"measurement": "% growth rel. to vehicle", "setting": "Caki-2", "result": 18, "unit": "%"},
      {"measurement": "% growth rel. to vehicle", "setting": "SK-N-SH", "result": 29, "unit": "%"},
      {"measurement": "% growth rel. to vehicle", "setting": "NCI-N87", "result": 26, "unit": "%"},
      {"measurement": "% growth rel. to vehicle", "setting": "SK-ES-1", "result": 36, "unit": "%"},
      {"measurement": "% growth rel. to vehicle", "setting": "HCC827", "result": 23, "unit": "%"},
      {"measurement": "% growth rel. to vehicle", "setting": "T47D", "result": 48, "unit": "%"},
      {"measurement": "GI50", "setting": "OCI-LY1", "result": 37, "unit": "nM"},
      {"measurement": "GI50", "setting": "JeKo-1", "result": "< 1", "unit": "nM"},
      {"measurement": "GI50", "setting": "RS4; 11", "result": 3, "unit": "nM"},
      {"measurement": "GI50", "setting": "ARH-77", "result": 16, "unit": "nM"},
      {"measurement": "IC50", "setting": "K562; K562 (BCR-Abl), erythroleukemia, 10-day treatment, read-out: G150 after 10 days of treatment", "result": "> 1000", "unit": "nM"},
      {"measurement": "GI50", "setting": "K562; K562, CML/Erythroleukemia, BCR-ABL", "result": "> 1000", "unit": "nM"},
      {"measurement": "GI50", "setting": "HL-60", "result": 7, "unit": "nM"},
      {"measurement": "GI50", "setting": "NB4", "result": "> 1000", "unit": "nM"},
      {"measurement": "IC50", "setting": "MEG-01; MEG-01 (BCR-AB1, GAGA1s), adult non-DS-AMKL, 10-day treatment, read-out: G150 after 10 days of treatment", "result": 9, "unit": "nM"},
      {"measurement": "GI50", "setting": "MEG-01; MEG-01, CML/AMkL, BCR-ABL, GATA1s", "result": 9, "unit": "nM"},
      {"measurement": "GI50", "setting": "HCT116", "result": "> 1000", "unit": "nM"},
      {"measurement": "GI50", "setting": "ALL-SIL", "result": 2, "unit": "nM"},
      {"measurement": "IC50", "setting": "HEL; HEL (JAK2V617F), erythroleukemia, 10-day treatment, read-out: G150 after 10 days of treatment", "result": "> 1000", "unit": "nM"},
      {"measurement": "GI50", "setting": "HEL; HEL, AML/Erythroleukemia, JAK2V617F", "result": "> 1000", "unit": "nM"},
      {"measurement": "IC50", "setting": "ME-1", "result": 1, "unit": "nM"},
      {"measurement": "GI50", "setting": "UKE-1", "result": 7, "unit": "nM"}
    ]}
  ]
}
